Some test systems named below: HS 578T breast; SN12C renal; MDA-N; DLD-1 colon; DMS 114 small cell lung; DMS 273 small cell lung; HOP-18 NSCLC; KM20L2 colon; LXFL 529 NSCLC; M19-MEL melanoma; SNB-78 CNS.
Holding throughout (assay): inhibition of tumour cell growth, NCI panel, 48 h

Several values for one entry are separate records, joined by “and”; a condition that tells them apart may be missing. Equal entries are not always repeated.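 A five-concentration, 48-hour dose response in 96-well plates underlies each endpoint, interpolated linearly between surrounding concentrations. Here, GI50 denotes the concentration required for 50% inhibition of growth. The concentration for full growth arrest is given as TGI.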

For `N=C(N)c1ccc(OCc2cccc(COc3ccc(C(=N)N)cc3)c2)cc1`, in the experiment with HS 578T breast, the GI50 was 4 µM and the TGI was determined as 12.5 µM. Moreover, in the experiment with SN12C renal, the GI50 was 2.68 µM and the TGI turned out to be 13.1 µM.
For the compound `CC[C@]1(O)CC(OC2CC(N(C)C)C(O)C(C)O2)c2c(cc3c(c2O)C(=O)c2c(O)cccc2C3=O)[C@@H]1C(=O)OC` (stereo partly drawn), the TGI turned out to be 4.21 µM in the experiment on HS 578T breast, 1.92 µM in the experiment on MDA-N and 6.85 µM with SN12C renal.
Take `Nc1c(C(=O)c2cccc(CCCN3CCOCC3)c2)cnn1-c1ccc(F)cc1`: in the experiment with HS 578T breast, the GI50 is above 25 µM and the TGI is above 25 µM. Besides, in the experiment on SN12C renal, the GI50 was above 25 µM and the TGI was above 25 µM.
Consider `NC(=O)NNCc1ccccc1`, for which the TGI with HS 578T breast, in the experiment with MDA-N and in the experiment with SN12C renal was above 100 µM in each case.
Regarding `CCCCCCCCCCCCNC(C)=O`, the TGI with HS 578T breast turned out to be 31.1 µM; in the experiment on MDA-N it was 31 µM; in the experiment on SN12C renal it was 37 µM.
For the compound `CCOC(=O)c1c2c(c(O)c3ccccc3c(O)n(Cc3ccc(OC)cc3)c1C)C(=O)C=CC2=O`, in the experiment on HS 578T breast, the GI50 was above 100 µM and the TGI was above 100 µM. Also, in the experiment with SN12C renal, the GI50 was above 100 µM and the TGI was above 100 µM.
As to `COc1cc(NS(C)(=O)=O)ccc1Nc1c2ccc([N+](=O)[O-])cc2nc2c(C)cccc12`, in the experiment with HS 578T breast, the GI50 was 1.96 µM and the TGI came to 22.3 µM. Further, in the experiment with SN12C renal, the GI50 was 0.175 µM and the TGI is 9.26 µM.
Take `C=C1C(=O)O[C@H]2[C@H]1CC/C(CNC(=O)Cc1c[nH]c3ccccc13)=C\CC[C@@]1(C)O[C@@H]21`: in the experiment on HS 578T breast, the GI50 is 11.9 µM and the TGI stood at 45.5 µM. In the experiment with SN12C renal, the GI50 was 1.91 µM and the TGI is 18.3 µM.
For the compound `O=[N+]([O-])c1ccc(S(=O)(=O)Cc2ccccc2)c([N+](=O)[O-])c1`, the figures for the TGI in the experiment with HS 578T breast and in the experiment on MDA-N were above 91.7 µM and 4.09 µM, respectively.
On to `OC(c1cccc(-n2ccc(C(F)(F)F)n2)c1)c1cnccc1NC1CCCCCC1` (stereo not drawn), for which, in the experiment on HS 578T breast, the GI50 is 1.64 µM and the TGI turned out to be 3.69 µM. Further, in the experiment on SN12C renal, the GI50 was 1.69 µM and the TGI came to 3.2 µM.
Take `O=C(O)CCNc1ccccc1C(=O)O`: the TGI in the experiment with HS 578T breast, in the experiment on MDA-N and with SN12C renal was above 100 µM in each case.
On to `COc1ccccc1NC(=O)c1sc2nc3c(cc2c1N)C(=O)CCC3`, for which, in the experiment with HS 578T breast, the GI50 is 6.77 µM and the TGI is above 100 µM. Further, in the experiment on SN12C renal, the GI50 was above 100 µM and the TGI was above 100 µM.
In the case of `CN1C(=O)CC(c2cccc(C3CC(=O)N(C)C3=O)n2)C1=O` (stereo not drawn), the TGI in the experiment on DLD-1 colon, with DMS 114 small cell lung, with DMS 273 small cell lung, with HOP-18 NSCLC, with KM20L2 colon and in the experiment on LXFL 529 NSCLC was above 100 µM throughout. Moreover, the TGI in the experiment on M19-MEL melanoma, with SN12C renal and in the experiment with SNB-78 CNS was above 100 µM throughout.
With `O=C(O)C/C(=C\c1ccco1)C(=O)O`, the TGI with MDA-N and in the experiment on SN12C renal was above 100 µM in each case.
As to `C[C@@H]1COCCN1c1cc(C2([S@](C)(=N)=O)CC2)nc(-c2ccnc3[nH]ccc23)n1`, in the experiment on HS 578T breast, the GI50 is 2.93 µM and 3.72 µM; the TGI is 29.6 µM and > 10 µM. For the same compound, in the experiment on SN12C renal, the GI50 was 5.04 µM and 9.13 µM; the TGI was above 100 µM.
As for `CCN(CC)CCOCC[C@H]1CC[C@H]2[C@@H]3[C@H](C)Cc4cc(OS(N)(=O)=O)ccc4[C@H]3CC[C@]12C`, in the experiment on SN12C renal, the GI50 was 1.19 µM and the TGI is 2.86 µM.
`COc1ccc(OC)c(/C=N/NC(=O)Cc2csc3nc(-c4ccc(Br)cc4)cn23)c1`: the GI50 is 11.6 µM with HS 578T breast and 20.7 µM in the experiment with SN12C renal. The TGI in the experiment with HS 578T breast came out at 45.4 µM; in the experiment on SN12C renal, 49.4 µM.
On to `Nc1ccc2c(c1)C(=O)C(=O)c1c-2nc2ccccn12`, for which, in the experiment on SN12C renal, the GI50 was 1.08 µM and the TGI was determined as 2.48 µM.
For the compound `COc1cc2c3c(n(CCCN)c(=O)c2cc1OC)-c1ccccc1C3=O`, in the experiment on HS 578T breast, the GI50 is 11.1 µM and the TGI was 46.9 µM. Moreover, in the experiment with SN12C renal, the GI50 is 0.934 µM and the TGI was found to be 5.08 µM.
In the same order, the values of `COc1ccc2oc(=O)cc(C(c3ccc[nH]3)c3ccc[nH]3)c2c1` are 0.171 µM, 50.5 µM, 0.148 µM and 15.8 µM.
Consider `Clc1ccc(CSC(Cn2ccnc2)c2ccc(Cl)cc2Cl)cc1` (stereo not drawn), for which the GI50 in the experiment on HS 578T breast is 1.97 µM; in the experiment with SN12C renal, 1.53 µM. For the same compound, the TGI in the experiment on HS 578T breast came out at 5.02 µM; with SN12C renal, 2.87 µM.
With `C/C(=N\NC(=O)c1sc(=S)n(C)c1N)c1cc2ccccc2o1`, in the experiment on HS 578T breast, the GI50 is 11.7 µM and the TGI amounted to 31.2 µM. In the experiment on SN12C renal, the GI50 is 17.6 µM and the TGI came to 55.6 µM.
Regarding `F`, in the experiment with SN12C renal, the GI50 is 3270 µM and the TGI is above 6870 µM.
As to `CCSCC1CC(O)(c2ccccc2)C(c2ccccc2)C(c2ccc(Cl)cc2)O1` (stereo not drawn), the GI50 in the experiment on HS 578T breast is 2.5 µM; in the experiment on SN12C renal, 1.52 µM. For the same compound, the results for the TGI with HS 578T breast and in the experiment with SN12C renal were 8.87 µM and 3.13 µM, respectively.
Turning to `CC[C@]12CCCN3CCc4c(n(c5ccccc45)C(=O)C1)[C@@H]32`, the figures for the TGI in the experiment on HS 578T breast, in the experiment on MDA-N and in the experiment on SN12C renal were 49.1 µM, 4.79 µM and above 100 µM, respectively.
Consider `COc1cc2c(cc1O)CC[C@@H]1[C@@H]2CC[C@]2(C)[C@@H](NCCN(C)C)CC[C@@H]12`, for which the GI50 in the experiment on HS 578T breast is 0.277 µM; with SN12C renal, 0.38 µM. Moreover, the figures for the TGI in the experiment on HS 578T breast and with SN12C renal were 1.1 µM and 1.48 µM, respectively.
`CCN1CCN(Cc2ccc(-c3cc4c(N[C@H](C)c5ccccc5)ncnc4[nH]3)cc2)CC1`: the GI50 was 2.1 µM and 0.763 µM in the experiment with HS 578T breast; 0.278 µM and 2.12 µM with SN12C renal. Also, the TGI with HS 578T breast was 9.79 µM and 5.24 µM; in the experiment on SN12C renal, 15.5 µM and > 10 µM.

Values taken from PubChem BioAssay (NCI).
